The target of data set [1] is T1, aromatase (CYP19, BD Biosciences) (Homo sapiens, UniProt P11511).
T1 sequence (P11511 1-503): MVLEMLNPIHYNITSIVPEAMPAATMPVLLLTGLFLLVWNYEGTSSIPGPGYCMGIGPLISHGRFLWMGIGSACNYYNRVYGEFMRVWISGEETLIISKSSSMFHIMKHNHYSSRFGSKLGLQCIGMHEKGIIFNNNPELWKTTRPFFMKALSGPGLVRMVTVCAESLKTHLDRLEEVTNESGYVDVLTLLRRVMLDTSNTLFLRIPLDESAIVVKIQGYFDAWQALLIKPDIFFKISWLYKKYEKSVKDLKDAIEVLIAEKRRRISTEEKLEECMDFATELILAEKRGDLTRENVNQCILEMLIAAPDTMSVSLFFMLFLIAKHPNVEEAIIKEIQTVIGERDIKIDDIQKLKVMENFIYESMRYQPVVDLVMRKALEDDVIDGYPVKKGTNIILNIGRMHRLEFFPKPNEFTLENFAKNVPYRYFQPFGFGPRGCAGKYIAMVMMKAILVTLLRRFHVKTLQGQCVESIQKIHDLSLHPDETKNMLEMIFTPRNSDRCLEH
Put plainly: Assay for inhibition of aromatase activity (fluorescence, dibenzylfluorescein).
Method: Aromatase inhibition is quantified by measuring the fluorescent intensity of fluorescein, the hydrolysis product of dibenzylfluorescein by aromatase. In brief, the test substance (10 μL) is pre-incubated with the NADPH regenerating system (90 μL of 2.6 mM NADP^+, 7.6 mM glucose 6-phosphate, 0.8 U/mL glucose-6-phosphate dehydrogenase, 13.9 mM MgCl2, and 1 mg/mL albumin in 10 mL of 50 mM potassium phosphate, pH 7.4) for 10 min at 37° C. before 100 μL of the enzyme and substrate mixture [800 μL enzyme (CYP19, BD Biosciences, San Jose, Calif.), 0.4 μM dibenzylfluorescein and 4 mg/mL albumin in 10 mL of 50 mM potassium phosphate, pH 7.4] are added. Then, the reaction mixture is incubated for 30 min at 37° C. to allow aromatase to generate the product, and quenched with 75 μL 2 N NaOH. After the reaction is terminated, a 5-min shaking followed by a 2-h incubation at 37° C. enhances the noise/background ratio and fluorescence is measured at 485 nm (excitation) and 530 nm (emission). All experiments were performed in duplicate and the average was used for calculation of IC50 values (Table 2). Compounds were tested in comparison to aminogluthethimide used as positive control.

For data set [2], the system named is TPA-induced ornithine decarboxylase (ODC) activity in T24 cells. As to the kind of experiment: Inhibition of TPA-induced ornithine decarboxylase (ODC) activity in T24 cells. It is filed as cell-based. Conditions: Homo sapiens, read-out: IC50, inhibition of TPA-induced ODC activity.
Method: Cell Culture. […] T24 cells were cultured in MEM medium (Invitrogen, Carlsbad, Calif.) containing 10% heat-inactivated fetal bovine serum, non-essential amino acids, 1 mM sodium pyruvate (BioWhittaker, Walkersville, Md.), 100 units of penicillin/mL, 100 μg streptomycin/mL and 250 ng amphotericin B/mL (Gibco Invitrogen, Grand Island, N.Y.). […] The cell lines were maintained in a 5% CO2 atmosphere at 37° C. and were routinely tested for mycoplasma contamination.
In brief, cells were plated at an initial density of 2×10^5 cells per well in 24-well plates. […] After an additional 6 h incubation, plates were washed twice with PBS and kept at −85° C. until tested. ODC activity was directly assayed by measuring the release of [^14C]CO2 from L-[1-^14C]-ornithine HCl in the presence of 190 μM nonradioactive ornithine HCl. The amount of radioactivity captured in NaOH-impregnated filter discs was determined by scintillation counting in 24-well plates using a Wallac 1450 Microbeta liquid scintillation counter. Protein was determined according to the Lowry procedure. Interfering dithiothreitol contained in the reaction mixture was destroyed by adding chloramine T (50 μL, 8 mg/mL) to each well (30 min incubation at RT), followed by NaOH (50 μM, 5.7 M) to solubilize the protein. The protein was measured in 96-well plates using an aliquot of the reaction mixture and bovine serum albumin as a standard. The optical density was measured at 660 nm using a BT2000 Microkinetic Reader. The results were calculated as nmol [^14C]CO2/h/mg protein and expressed as a percentage in comparison with a control treated with DMSO and TPA (12-O-tetradecanoylphorbol-13-acetate). Dose-response curves were prepared and the results were expressed as IC50 values in micromolar concentrations.
The subject of the next data set is HL-60 cells. Put plainly: Induction of differentiation in HL-60 cell line (NBT reduction, 4-day protocol). It is filed as cell-based.
Data set [3] has as its system TPA-induced NF-κB activity in HepG2 cells stably transfected with NF-κB-luciferase plasmid. As to the kind of experiment: Inhibition of TPA-induced NF-κB activity in HepG2 cells (NF-κB-luciferase). The data set is classed as cell-based, human.
Method: Cell Culture. […] HepG2 human hepatoma cells stably transfected with NF-κB-luciferase plasmid were maintained in Ham's F12 supplemented with 10% heat-inactivated fetal bovine serum, 100 units/mL penicillin G sodium, 100 μg/mL streptomycin sulfate, 1% MEM amino acid and 0.1% insulin. […] The cell lines were maintained in a 5% CO2 atmosphere at 37° C. and were routinely tested for mycoplasma contamination.
Inhibition of TPA-Induced NF-κB Activity in HepG2 Cells. […] In brief, transfected cells were incubated for 48 h in 96-well plates. […] Cells were washed with PBS, lysed using 50 μL 1× Reporter Lysis Buffer (Promega, Madison, Wis.) for 10 min, and the luciferase determination was performed according to the manufacturer's protocol.
Where [4] appears, read: read-out: IC50 (μM), aromatase inhibition, fluorescein from dibenzylfluorescein, 30 min at 37° C., average of duplicates.
[5] abbreviates: T-24, T24 cells, TPA 200 nM, 6 h incubation.

Where two headings read alike, the source gives them in different places.

A word on the IC50: it is the point on the concentration scale where inhibition reaches its midpoint. The term melting point denotes the temperature of the solid-liquid transition.

Method for HL-60 cells: Cell Culture. […] The cell lines were maintained in a 5% CO2 atmosphere at 37° C. and were routinely tested for mycoplasma contamination.
HL-60 cells were tested using a 4-day protocol. […] In brief, cells in log phase (approximately 10^6 cells/mL) were diluted to 10^5 cells/mL and preincubated overnight (18 h) in 24-well plates to allow cell growth recovery. Then, samples dissolved in DMSO were added, keeping the final DMSO concentration at 0.1% (v/v). Control cultures were treated with the same concentration of DMSO.
Evaluation of NBT reduction was used to assess the ability of sample-treated cells to produce superoxide when challenged with TPA. A 1:1 (v/v) mixture of a cell suspension (10^6 cells) and TPA/NBT solution [2 mg/mL NBT and 1 μg/mL TPA in phosphate buffer saline (PBS)] was incubated for 1 h at 37° C. Then, cells were smeared on glass slides, and counterstained with 0.3% (w/v) safranin O in methanol. Positive cells reduce NBT yielding intracellular black-blue formazan deposits and were quantified by microscopic examination of >200 cells. Results were expressed as a percentage of positive cells.

In data set [1], `COCOc1ccc2c(c1)OC(c1ccc(OCOC)c(CC=C(C)C)c1)CC2=O` (racemic) [8a, 7-(Methoxymethoxy)-2-(4-(methoxymethoxy)-3-(3-methylbut-2-enyl)phenyl)-chroman-4-one] returned an IC50 of 13.9 ± 6.09 µM.

Consider `CC(C)=CCc1cc(C2CC(=O)c3ccc(O)cc3O2)ccc1O` (racemic) [8b, 7-Hydroxy-2-(4-hydroxy-3-(3-methylbut-2-enyl)phenyl)chroman-4-one], for which the melting point lay within 76 to 78 °C.

In turn, `COCOc1ccc2c(c1)OC(c1ccc(OC)c(CC=C(C)C)c1)CC2=O` (racemic) [8c, 2-(4-Methoxy-3-(3-methylbut-2-enyl)phenyl)-7-(methoxymethoxy)chroman-4-one] showed a half-maximal inhibitory concentration (IC50) in data set [1] of 7.67 ± 3.27 µM.

In data set [1], `COc1ccc(C2CC(=O)c3ccc(O)cc3O2)cc1CC=C(C)C` (racemic) [8d, 7-Hydroxy-2-(4-methoxy-3-(3-methylbut-2-enyl)phenyl)chroman-4-one] returned an IC50 of 4.08 ± 2.1 µM.

In the case of `COCOc1ccc(C2CC(=O)c3ccc(OC)cc3O2)cc1CC=C(C)C` (racemic) [8e, 7-Methoxy-2-(4-(methoxymethoxy)-3-(3-methylbut-2-enyl)phenyl)chroman-4-one], in data set [1], the half-maximal inhibitory concentration (IC50) worked out at 25.1 ± 6.38 µM.

`COc1ccc2c(c1)OC(c1ccc(O)c(CC=C(C)C)c1)CC2=O` (racemic) [8f, 2-(4-Hydroxy-3-(3-methylbut-2-enyl)phenyl)-7-methoxychroman-4-one] displayed an IC50 in data set [1] of 4.75 ± 0.61 µM.

Compound `COc1ccc2c(c1)OC(c1ccc(OC)c(CC=C(C)C)c1)CC2=O` (racemic) [8g, 7-Methoxy-2-(4-methoxy-3-(3-methylbut-2-enyl)phenyl)chroman-4-one] yielded an IC50 in data set [1] of 3.67 ± 1.61 µM.

For the compound `COc1ccc(C2CC(=O)c3ccccc3O2)cc1CC=C(C)C` (racemic) [8h, 2-(4-Methoxy-3-(3-methylbut-2-enyl)phenyl)chroman-4-one], half-maximal inhibition in data set [1] (IC50) required 12.1 ± 3.24 µM.

Consider `COc1ccc2c(c1)OC(c1cccc(CC=C(C)C)c1)CC2=O` (racemic) [8i, 7-Methoxy-2-(3-(3-methylbut-2-enyl)phenyl)chroman-4-one], for which 4.67 ± 2.15 µM corresponded to half-maximal inhibition in data set [1] (IC50).

For the compound `COc1ccc(C2CC(=O)c3ccc(OC)cc3O2)cc1` (racemic) [8j, 7-Methoxy-2-(4-methoxyphenyl)chroman-4-one], the IC50 in data set [1] stood at 1.86 ± 0.37 µM.

`COc1ccc2c(c1)OC(c1ccc(OCC=C(C)C)cc1)CC2=O` (racemic) [8k, 7-Methoxy-2-(4-(3-methylbut-2-enyloxy)phenyl)chroman-4-one]: the melting point was 108 to 110 °C.

On to `COc1ccc(C(=O)CC(O)c2ccc(OC)c(CC=C(C)C)c2)c(O)c1` (stereo not shown) [3-Hydroxy-1-(2-hydroxy-4-methoxyphenyl)-3-(4-methoxy-3-(3-methylbut-2-enyl)phenyl)propan-1-one], for which the concentration for half-maximal inhibition (IC50) in data set [1] (setting [4]) is 54.7 ± 11.9 µM.

In turn, `COCOc1ccc(C(=O)/C=C/c2ccc(OCOC)c(CC=C(C)C)c2)c(O)c1` [7a, 1-(2-Hydroxy-4-(methoxymethoxy)phenyl)-3-(4-(methoxymethoxy)-3-(3-methylbut-2-enyl)phenyl)prop-2-en-1-one] had a 50% inhibitory concentration (IC50) in data set [1] above 243 µM.

As for `CC(C)=CCc1cc(/C=C/C(=O)c2ccc(O)cc2O)ccc1O` [7b, 1-(2,4-Dihydroxyphenyl)-3-(4-hydroxy-3-(3-methylbut-2-enyl)phenyl)-prop-2-en-1-one], the melting point came to 167 °C. Moreover, the IC50 in data set [1] is above 308 µM.

`COCOc1ccc(C(=O)/C=C/c2ccc(OC)c(CC=C(C)C)c2)c(O)c1` [7c, 1-(2-Hydroxy-4-(methoxymethoxy)phenyl)-3-(4-methoxy-3-(3-methylbut-2-enyl)phenyl)prop-2-en-1-one] displayed a 50% inhibitory concentration (IC50) in data set [1] above 261 µM.

Consider `COc1ccc(/C=C/C(=O)c2ccc(O)cc2O)cc1CC=C(C)C` [7d, 1-(2,4-Dihydroxyphenyl)-3-(4-methoxy-3-(3-methylbut-2-enyl)phenyl)prop-2-en-1-one], for which the melting point lay in the range of 166 to 168 °C. Besides, the IC50 in data set [1] (setting [4]) is 82.9 ± 44.3 µM.

Take `COCOc1ccc(/C=C/C(=O)c2ccc(OC)cc2O)cc1CC=C(C)C` [7e, 1-(2-Hydroxy-4-methoxyphenyl)-3-(4-(methoxymethoxy)-3-(3-methylbut-2-enyl)phenyl)prop-2-en-1-one]: the half-inhibitory concentration (IC50) in data set [1] is above 261 µM.

`COc1ccc(C(=O)/C=C/c2ccc(O)c(CC=C(C)C)c2)c(O)c1` [7f, 3-(4-Hydroxy-3-(3-methylbut-2-enyl)phenyl)-1-(2-hydroxy-4-methoxyphenyl)prop-2-en-1-one] came in with a melting point of 80 to 82 °C. The compound further came in with an IC50 in data set [1] above 295 µM.

For the compound `COc1ccc(C(=O)/C=C/c2ccc(OC)c(CC=C(C)C)c2)c(O)c1` [7g, 1-(2-Hydroxy-4-methoxyphenyl)-3-(4-methoxy-3-(3-methylbut-2-enyl)phenyl)prop-2-en-1-one], the melting point is 82 to 84 °C. Also, the half-maximal inhibitory concentration (IC50) in data set [1] is above 284 µM.

In data set [1], `COc1ccc(/C=C/C(=O)c2ccccc2O)cc1CC=C(C)C` [7h, 1-(2-Hydroxyphenyl)-3-(4-methoxy-3-(3-methylbut-2-enyl)phenyl)prop-2-en-1-one] gave an IC50 above 310 µM.

In turn, `COc1ccc(C(=O)/C=C/c2cccc(CC=C(C)C)c2)c(O)c1` [7i, 1-(2-Hydroxy-4-methoxyphenyl)-3-(3-(3-methylbut-2-enyl)phenyl)prop-2-en-1-one] registered an IC50 in data set [1] above 310 µM.

Consider `COc1ccc(/C=C/C(=O)c2ccc(OC)cc2O)cc1` [7j, 1-(2-Hydroxy-4-methoxyphenyl)-3-(4-methoxyphenyl)prop-2-en-1-one], for which the IC50 in data set [1] is above 352 µM.

For `COc1ccc(C(=O)C=Cc2ccc(OCC=C(C)C)cc2)c(O)c1` [7k, 1-(2-Hydroxy-4-methoxyphenyl)-3-(4-(3-methylbut-2-enyloxy)phenyl)prop-2-en-1-one], the melting point fell in the range of 95 to 97 °C. Besides, the IC50 in data set [1] was above 271 µM.

For the compound `O=c1cc(-c2ccc(O)cc2)oc2cc(O)cc(O)c12` [apigenin], the half-maximal inhibitory concentration (IC50) in data set [2] (setting [5]) worked out at 6 µM. Moreover, in the data set with HL-60 cells, the “ED50, concentration inducing 50% of the cells to differentiate” value is 10 µM.

Turning to `COc1cc2c(cc1OC)[C@@H]1C(=O)c3ccc4c(c3O[C@@H]1CO2)C=CC(C)(C)O4` [deguelin], in data set [2] (T-24, 6 h), the half-maximal inhibitory concentration (IC50) came to 0.1 µM.

Consider `O=c1c(-c2ccc(O)cc2)coc2cc(O)cc(O)c12` [genistein], for which the “ED50, concentration inducing 50% of the cells to differentiate” value with HL-60 cells was 30 µM.

With `CC1=CC(=O)c2ccccc2C1=O` [menadione], the concentration for half-maximal inhibition (IC50) in data set [2] (setting [5]) worked out at 8.3 µM.

For Tumor necrosis factor (TNF)-α, the “IC50, standard inhibitor in NF-κB luciferase assay” value in data set [3] is 0.015 to 0.025 µg/mL.

These data come from US8946287B2, “Chemotherapeutic flavonoids, and syntheses thereof” (Purdue Research Foundation, priority 2006, dated 2015).
